# Measurements reported in patent publication US20130079370A1, “Method for the Inhibition of Deubiquitinating Activity” (priority 2011, published 2013).
# Key:
# [1] = system: HCT-116 Bcl2+ colon carcinoma xenografts; test: HCT-116 Bcl2+ colon carcinoma xenografts in nude mice, tumor onset; format: in vivo; conditions: 5 mg/kg 4-5 times weekly for 3 weeks; log-rank P=0.0136; vs vehicle
# Procedure: Animal experiments were conducted in full accordance with Swedish governmental statutory regulations on animal welfare under permission from local ethical committees. Animals were housed at a max of five per cage and provided with sterile water and food ad libitum. All mice were monitored and weighed daily. For the head and neck carcinoma model a 100-μl cell suspension containing 1×10^6 FaDu cells was injected subcutaneously into the right rear flank of the animals. After injection, tumor growth was measured daily with calipers and the tumor volume calculated by the formula L×W^2×0.44. When tumors had grown to a size of approximately 200 mm^3 (Day 0) mice were randomized to receive either vehicle (n=10) or b-AP15 5 mg/kg by subcutaneous injection s.c. (n=15) daily. […] Nineteen days after malignant cell injection all of the mice were killed and histopathological manifestations of liver, ovary (target organs for this model of tumor) were evaluated and compared between groups. […]
# SCID mice bearing FaDu human tumor xenografts were randomized at tumor take (200 mm^3) and treated by daily subcutaneous injection with either vehicle (n=10) or 5 mg kg^−1 b-AP15 (n=15) for 10 days. […] Mice were treated with vehicle (n=6) or 5 mg kg^−1 b-AP15 (n=6) 4-5 times weekly for 3 weeks and monitored for tumor onset (log-rank, P=0.0136, hazard ratio=7.9). […]
# [2] = system: Lewis Lung Carcinoma (LLC) tumors; test: Syngenic lung carcinoma (LLC) model; format: in vivo, C57BL/6J mice; conditions: 5 mg/kg i.p.
# [3] = system: HTC-116, hTERT-RPE1 and PBMC; test: Cytotoxic activity, FMCA method; format: cell-based; conditions: 72 h
# Procedure: For the FMCA assay cells were seeded in the drug-prepared 384-well plates using the pipetting robot Precision 2000 (Bio-Tek Instruments Inc., Winooski, Vt.). The plates were incubated for 72 h and then transferred to an integrated HTS SAIGAN Core System consisting of an ORCA robot (Beckman Coulter) with CO2 incubator (Cytomat 2C, Kendro, Sollentuna, Sweden), dispenser module (Multidrop 384, Titertek, Huntsville, Ala.), washer module (ELx 405, Bio-Tek Instruments Inc), delidding station, plate hotels, barcode reader (Beckman Coulter), liquid handler (Biomek 2000, Beckman Coulter) and a multipurpose reader (FLUOstar Optima, BMG Labtech GmbH, Offenburg, Germany) for automated FMCA. Survival index (SI) is defined as the fluorescence of test wells in percentage of controls with blank values subtracted.
# HCT-116 cells were treated with increasing concentrations of b-AP15 for 24 h and the levels of apoptosis were determined by measuring the levels of caspase cleaved cytokeratin-18 (CK18) by ELISA assay (FIG. 6a). HCT-116 cells were treated with increasing concentrations of b-AP15 for 48 h). Cell viability was determined by acid-phosphatase activity assay. […] IC50 was determined from log concentration/effect curves in Graph Pad Prism (GraphPad Software Inc. CA, USA) using non-linear regression analysis (four parameter model with variable Hill slope) (FIGS. 6e, 6f). […]
smiles,measurement,setting,value
"C=CC(=O)N1C/C(=C\c2ccc([N+](=O)[O-])cc2)C(=O)/C(=C/c2ccc([N+](=O)[O-])cc2)C1 [b-AP15, (3E,5E)-3,5-bis[(4-nitrophenyl)methylidene]-1-(prop-2-enoyl)piperidin-4-one]","hazard ratio, disease free survival",[1],7.9
same,difference in weight at the start and the endpoint between control and treated animals,[2],+2.1%
same,"cytotoxic activity, tumor versus normal cell types",[3],more toxic to the colon carcinoma cell line HTC-116 than to immortalized retinal pigment epithelial cells (hTERT-RPE1) and peripheral blood mononuclear cells (PBMC)
